Experimental data from patent publication US8138191B2, “Inhibitor compounds and cancer treatment methods” (Critical Outcome Technologies Inc., priority 2007, dated 2012).
Where two headings read alike, the source gives them in different places.

Columns and labels:
[1] = test system: DMS-114 and SHP-77 SCLC cell lines; assay: Cell viability by trypan blue exclusion; format: cell-based, human; details: 250 nM, within four days
Description: Cell viability was determined at 24, 48, and 96 hrs by the trypan exclusion method. Whole cell lysates were prepared using standard procedures and fifty micrograms of lysate protein was separated on SDS-PAGE gels and analyzed by western blotting.
Cell viability was determined at 24, 48, and 96 h by the trypan exclusion method. Whole cell lysates were prepared using standard procedures and 50 μg of lysate protein was separated on SDS-PAGE gels and analyzed by western blotting.

A549 = assay: in vitro IC50 against cancer cell lines, A549; format: cell-based; details: Homo sapiens, 72 h; A549, NSCLC, 3 days
[2] = Metabolic Stability (liver microsomes, rat, Sprague-Dawley); format: in vitro ADME; details: 1.0E−06 M, 60 min
Description: Metabolic stability was determined in human (mixed gender and pool of 50) monkey (male Cynomolgus, pool of 6 or more), dog male, beagle, pool of 4 or more) and rat (male Sprague-Dawley, pool of 100 or more) liver microsomes. […] Four reference substrates (1 μM) were tested simultaneously with COTI-2. […] Peak areas corresponding to COTI-2 were recorded by HPLC-MS/MS. Metabolic stability, expressed as percent of COTI-2 remaining, was calculated by comparing the peak area of COTI-2 at 60 min to time zero.

CYP2C9 = CYP2C9 (Homo sapiens, UniProt P11712); assay: in vitro; details: both
[3] = test system: AN3-CA human endometrial tumor xenograft; details: for Maximum weight loss (%) (Day #): Day 21; for CS (Complete Shrinkage) / Deaths: N 10; for Mean days of Survival (Day ± SEM): end point of 2000 mg
Description: Female athymic nude mice (CrTac:NCR-Foxn1^nu) were supplied by Taconic (Germantown, N.Y.).
The dosing schedule for COTI-2 and the vehicle control was three times weekly until study end. […] When the mean tumor weight of each mouse reached an approximate end-point of 2000 mg, mice were sacrificed with regulated CO2.
The mean tumor shrinkage of each group was calculated and reported.

dog plasma = assay: in vitro; format: in vitro ADME; details: mixed breeds, 10 µM
Description: (§1) Commercially obtained (Rockland Immunochemicals Inc.), non-sterile, species-specific plasma (human, monkey, and dog) with sodium anticoagulant added was utilized for this study. […] Dialysis membrane strips (12-14K MWCO) were presoaked in water and ethanol, rinsed and then kept in buffer until use. Following assembly of the 96-well dialysis apparatus, […] membrane strips placed between the dialysis and sample compartments. The dialysate compartment was loaded with 0.15 ml phosphate buffer was added to the dialysis side of each well. Plasma (unfiltered) was spiked with 10 μM COTI-2 (1% DMSO) and 0.15 ml added to the sample side of each well. After loading, samples are covered and incubated at 37° C. until equilibrium was reached (at least 8 hours). Equal volumes of sample were removed from the buffer and plasma sides of each well, diluted with acetonitrile/buffer and centrifuged. Also at this time an additional sample was prepared (in duplicate) by spiking COTI-2 in plasma at 10 μM, followed by sampling and diluting in acetonitrile/buffer in the same manner as the incubated plasma sample. This calibration sample served as the basis of a recovery determination. The supernatants were analyzed by HPLC-MS/MS and the peak response of COTI-2 in both dialysis and sample compartments, and in the calibration sample, were subsequently determined in two independent replicates. […] The HPLC conditions consist of a binary LC pump with autosampler, a C18 column (2×20 mm), and gradient elution. The percent bound to plasma/serum proteins and percent recovery of the compounds were calculated. The recovery determination serves as an indicator as to the reliability of the calculated protein binding value.

in vitro [4] = format: in vitro ADME
Description: as §1

human plasma = assay: in vitro; format: in vitro ADME; details: 10 µM
Description: as §1

in vitro [5] = format: in vitro ADME; details: mixed breeds, rat
rat plasma = assay: in vitro; format: in vitro ADME; details: mixed breeds, 10 µM
DMS114 cells = assay: Cell cycle analysis of DMS114 cells by FACS; format: cell-based, human; details: DMS114, 1.5 μM, 24 h
Description: Approximately 2×10^5 DMS114 cells were incubated for 24 h with the indicated concentrations of COTI-219. Following incubation with COTI-219 the cells were washed and re-suspended in 0.5 ml of BP Pharmingen Propidium Iodide staining solution (Cat. No. 556463) for FACS analysis in order to determine the changes in the cell cycle.

[6] = COTI-2 12.5 mg/kg IV 3X Weekly to end
[7] = COTI-2 50.0 mg/kg IV 3X Weekly to end

Sequence of CYP2C9 (P11712 whole entry): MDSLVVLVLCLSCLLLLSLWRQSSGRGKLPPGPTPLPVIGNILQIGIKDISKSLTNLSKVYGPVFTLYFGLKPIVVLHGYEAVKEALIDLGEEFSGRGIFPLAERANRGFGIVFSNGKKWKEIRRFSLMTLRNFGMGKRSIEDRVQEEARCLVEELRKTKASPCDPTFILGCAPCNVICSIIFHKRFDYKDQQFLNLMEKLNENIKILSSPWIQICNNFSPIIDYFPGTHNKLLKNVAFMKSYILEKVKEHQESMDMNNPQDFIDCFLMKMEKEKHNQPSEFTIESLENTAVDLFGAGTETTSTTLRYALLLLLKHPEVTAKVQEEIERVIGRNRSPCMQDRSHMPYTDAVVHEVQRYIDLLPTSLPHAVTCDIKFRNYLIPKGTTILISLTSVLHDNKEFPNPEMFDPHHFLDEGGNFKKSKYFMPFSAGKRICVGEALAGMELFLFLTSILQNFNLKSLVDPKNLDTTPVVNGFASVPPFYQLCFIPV

S=C(N/N=C1/CCCc2cccnc21)N1CCN(c2ccccn2)CC1 [COTI-2]
original tumor cells killed [1]: up to 80%
IC50 (A549): 6.3 µM
Mean Parent Remaining [2]: 1%
inhibition at 15 min, 10 µM (CYP2C9; human liver microsomes, pH 7.4, probe diclofenac (10 µM)): 2%
inhibition at 15 min, 10 µM (CYP2C9; liver microsomes, pH 7.4, probe diclofenac): < 50%
Day 13 Mean tumor weight [3, 6]: 1,828.9 ± 265.8 mg
Maximum weight loss (%) (Day #) [3, 6]: 8.2% (Day 21)
CS (Complete Shrinkage) [3, 6]: 0
Deaths [3, 6]: 0
Mean days of Survival (Day ± SEM) [3, 6]: 16.7 ± 0.8 days
Day 13 Mean tumor weight [3, 7]: 1,542.7 ± 217.2 mg
Day 13 TGI [3, 7]: 7.8%
Maximum weight loss (%) (Day #) [3, 7]: 5.4% (Day 21)
CS (Complete Shrinkage) [3, 7]: 0
Deaths [3, 7]: 1
Mean days of Survival (Day ± SEM) [3, 7]: 17.2 ± 0.7 days
Mean days of Survival (Day ± SEM) ([3]; COTI-2 […] IV 3X Weekly to end): 15.8 ± 0.9 days
toxicity observations ([3]; mouse, in vivo, 50 mg/kg): lethargy and hypoactivity
tumor weights or survival compared to control ([3]; single agent, IV three times weekly): did not show any statistical differences in tumor weights or survival
% Protein Bound 1st (dog plasma): 99.1%
% Protein Bound 2nd (dog plasma): 99.7%
% Protein Bound Mean (dog plasma): 99.4%
percent protein bound (dog plasma): > 99%
recovery at 10 µM (in vitro [4]; human, % Recovery 1st): 6.7%
recovery at 10 µM (in vitro [4]; human, % Recovery 2nd): 2.9%
recovery at 10 µM (in vitro [4]; human, % Recovery Mean): 4.8%
recovery at 10 µM (in vitro [4]; human, percent recovery): < 50%
recovery at 10 µM (in vitro [4]; mixed breeds, dog, % Recovery 1st): 42.6%
recovery at 10 µM (in vitro [4]; mixed breeds, dog, % Recovery 2nd): 32.8%
recovery at 10 µM (in vitro [4]; mixed breeds, dog, % Recovery Mean): 37.7%
recovery at 10 µM (in vitro [4]; mixed breeds, dog, percent recovery): < 50%
% Protein Bound 1st (human plasma): 99.8%
% Protein Bound 2nd (human plasma): >99.9%
% Protein Bound Mean (human plasma): 99.8%
percent protein bound (human plasma): > 99%
recovery at 10 µM (in vitro [5]; % Recovery 1st): 16.4%
recovery at 10 µM (in vitro [5]; % Recovery 2nd): 25.1%
recovery at 10 µM (in vitro [5]; % Recovery Mean): 20.7%
recovery at 10 µM (in vitro [5]; percent recovery): < 50%
% Protein Bound 1st (rat plasma): >99.9%
% Protein Bound 2nd (rat plasma): >99.9%
% Protein Bound Mean (rat plasma): >99.9%
percent protein bound (rat plasma): > 99%

CN1CCN(C(=S)NN=C2c3ncccc3-c3cccnc32)CC1 [COTI-219]
cell cycle effect (DMS114 cells): cell cycle arrest in G1
